Assay results published in US8299048B2, “Hexahydrocyclopentyl[f]indazole sulfonamides and derivatives thereof as selective glucocorticoid receptor modulators” (Merck Sharp & Dohme Corp., priority 2008, dated 2012).
pEC50: −log10 of the molar value.

Assays:
human GR [1] = molecular target: T1, human GR (Homo sapiens, UniProt P04150); assay: Trans-Activation Modulation of Glucocorticoid Receptor (GRAMMER), MMTV-LUC reporter, agonist mode; format: cell-based; design: endogenous in cells; conditions: for Emax: A549, A549 cells, maximum activity, read-out: Transactivation A549 Cells GRAMMER Emax; for pEC50: A549 cells, inflection point, read-out: Transactivation A549 Cells GRAMMER IP
T1 sequence (P04150 1-777): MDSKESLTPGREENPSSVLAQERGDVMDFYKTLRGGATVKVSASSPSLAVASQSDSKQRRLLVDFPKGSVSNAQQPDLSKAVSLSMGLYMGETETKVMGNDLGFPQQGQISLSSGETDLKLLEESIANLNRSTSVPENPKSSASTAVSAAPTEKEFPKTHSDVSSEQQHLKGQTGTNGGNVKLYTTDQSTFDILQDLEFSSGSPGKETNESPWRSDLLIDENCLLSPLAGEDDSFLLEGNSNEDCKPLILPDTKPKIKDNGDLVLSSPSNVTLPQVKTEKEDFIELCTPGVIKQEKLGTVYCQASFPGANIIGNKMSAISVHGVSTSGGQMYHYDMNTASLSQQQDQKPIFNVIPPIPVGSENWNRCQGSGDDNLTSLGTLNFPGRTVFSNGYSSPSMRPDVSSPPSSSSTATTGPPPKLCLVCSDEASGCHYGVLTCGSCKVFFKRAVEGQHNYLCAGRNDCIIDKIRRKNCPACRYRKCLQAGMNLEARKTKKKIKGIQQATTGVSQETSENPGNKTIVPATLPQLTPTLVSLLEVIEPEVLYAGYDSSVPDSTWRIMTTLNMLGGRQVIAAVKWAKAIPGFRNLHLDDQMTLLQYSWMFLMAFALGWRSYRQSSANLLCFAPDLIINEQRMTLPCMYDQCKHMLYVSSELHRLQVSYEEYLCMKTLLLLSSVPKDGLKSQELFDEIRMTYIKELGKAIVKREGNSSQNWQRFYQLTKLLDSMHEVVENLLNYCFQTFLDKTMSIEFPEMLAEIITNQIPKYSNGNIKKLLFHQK
Source text: This assay assesses the ability of test compounds to control transcription from the MMTV-LUC reporter gene in lung adenocarcinoma A549 cells or MDA-MB-453 cells, a human breast cancer cell line that naturally expresses the human GR. The assay measures induction of a modified MMTV LTR/promoter linked to the LUC reporter gene.
The routine transient assay consists of plating 7,000-25,000 cells/well of a white, clear-bottom 96-well plate. Alternatively, 384-well plates can be used at a cell concentration of 10,000/well. The media that the cells are plated in is “exponential growth medium” which consists of phenol red-free RPMI1640 containing 10% FBS, 4 mM L-glutamine, 20 mM HEPES, 10 ug/mL human insulin, and 20 ug/mL gentamicin. Incubator conditions are 37° C. and 5% CO2. The transfection is done in batch mode. The cells are trypsinized and counted to the right cell number in the proper amount of fresh media. It is then gently mixed with the FuGene6/DNA mix and plated onto the 96 or 384-well plate, all the wells receive 100 uL or 40 uL, respectively, of medium+lipid/DNA complex then incubated 37° C. overnight. The transfection cocktail consists of serum-free OptiMEM, FuGene6 reagent and DNA. The manufacturer's (Roche Biochemical) protocol for cocktail setup is as follows: The lipid to DNA ratio is approximately 2.5:1 and the incubation time is 20 min at room temperature. Sixteen to 24 hours after transfection, the cells are treated with dexamethasone to a final concentration of 10 nM as well as the compound of interest, such that final DMSO (vehicle) concentration is equal to or less than 1%. Each plate also contains samples that are treated with 10 nM dexamethasone alone, which is used as the 100% activity control. The cells are exposed to the compounds for 24 hours. After 24 hours, the cells are lysed by a Promega cell culture lysis buffer for approximately 30 min and then the luciferase activity in the extracts is assayed in the 96-well format luminometer. In 384-well format, Steady-Glo (Promega) or Steady-Lite (PerkinElmer) can be used by adding an equal volume of reagent to the media present in each well. Activity induced by 10 nM dexamethasone alone is set at 100% activity. Antagonist activity is calculated by determining the decrease in dexamethasone-induced activity in response to compound treatment relative to samples that were treated with dexamethasone alone. […] This transactivation assay can be performed in an agonist and antagonist mode to identify these different activities.

human GR [2] = molecular target: T1, human GR; assay: Transrepression Assay (GITAR), TNFα-β-lactamase reporter in U937 cells; format: cell-based; design: U937 cells contain an endogenous glucocorticoid receptor (GR); endogenous in cells; host or cells: U937 cells stably transfected with the TNF-alpha promoter/beta-lactamase reporter; conditions: for GITAR > GRAMM % SEP: GITAR Emax minus GRAMMER Emax; for pEC50: U937 cells, inflection point, read-out: Transrepression U937 Cells GITAR IP
Source text: This assay assesses the ability of test compounds to control transcription from the TNFα-β-lactamase reporter gene in U937 cells, a human myelomonocytic leukemia cell line that naturally expresses the human GR. The assay measures compound dependent-repression of the TNFa promoter linked to a reporter gene.
The human U937 cells that had been stablely transfected with the TNF-α promoter driving β-lactamase are used for this assay. U937 cells contain an endogenous glucocorticoid receptor (GR). Cells are maintained in RPMI 1640 Growth medium (Gibco Cat#11875-093) containing 25 mM HEPES, 10% FBS, 2 mM L-Glutamine, 1 mM Sodium pyruvate, 25 μg/ml Gentamicin (Gibco Cat#15710-064), 1:1000 2-Mercaptoethanol (Gibco Cat#21985-023) and 0.8 mg/ml G418 (Gibco Cat#10131-027). The density of the cells in the flask needs to be about 1×10^6−3×10^6/ml at the time of harvest. Usually, the cells are split to 1.2˜1.4×10^5/ml (1:10) 3 days prior to the assay. 50,000 cells/well are plated in 96 well black-walled plates the day of assay. Test compounds are added 10 μL/well, and cells are incubated at 37° C. for 30˜45 min. For assaying compounds, first dilute 1:10 in DMSO to make 1 mM, then further dilute 1:100 in medium to make 10× stock prior to adding to the cells. Add 50 ng/mlPMA (Sigma, cat# P8139) 10 μL/well to a final concentration 5 ng/ml, and 1 μg/ml LPS (Sigma, cat# L4130) 10 μL/well to a final concentration 100 ng/ml. Incubate cells at 37° C. overnight for ˜18 hr. PMA is stored frozen as 100 μg/ml stock in DMSO. Dilute 1:10 in DMSO for a working stock of 10 μg/ml and store at −20 C. For assaying, dilute the 10 μg/ml working stock 1:200 in medium to make a 10× solution (50 ng/ml). Store frozen LPS at 1 mg/ml in PBS, dilute 1:1000 in medium to make 10× (1 μg/ml) for the assay. Add 6× loading buffer (CCF2-AM) 20 μL/well, and incubate at room temperature for 70˜90 min. […] The activity repressed by 100 nM dexamethasone alone is set as 100% activity.

[3] = U-937, U937 cells, maximum activity, read-out: Transrepression U937 Cells GITAR Emax
[4] = U-937, activity repressed by 100 nM dexamethasone alone set as 100%, read-out: maximal activity in the transrepression (GITAR) assay

| SMILES | Emax (human GR [1]) | pEC50 (human GR [1]) | GITAR > GRAMM % SEP (human GR [2]) | pEC50 (human GR [2]) | Emax (human GR [2]; [3]) | Emax (human GR [2]; [4]) |
| --- | --- | --- | --- | --- | --- | --- |
| CCCS(=O)(=O)N(CC(O)C(F)(F)F)C[C@H]1CCC2=Cc3c(cnn3-c3ccc(F)cc3)C[C@@]21C (stereo partly drawn) [Example 148, N-{[(4αR,5S)-1-(4-fluorophenyl)-4α-methyl-1,4,4α,5,6,7-hexahydrocyclopenta[f]indazol-5-yl]methyl}-N-(3,3,3-trifluoro-2-hydroxypropyl)propane-1-sulfonamide] | 62.6% | 6.40 | 14.9% | 6.07 | 77.6% | > 5% |
| Cn1cc(S(=O)(=O)N(CCc2ccccn2)C[C@H]2CCC3=Cc4c(cnn4-c4ccc(F)cc4)C[C@@]32C)c(C(F)(F)F)n1 [Example 150, N-{[(4αR,5S)-1-(4-fluorophenyl)-4α-methyl-1,4,4α,5,6,7-hexahydrocyclopenta[f]indazol-5-yl]methyl}-1-methyl-N-(2-pyridin-2-ylethyl)-3-(trifluoromethyl)-1H-pyrazole-4-sulfonamide] | 45.6% | 6.46 | 33.7% | 6.42 | 79.3% | > 5% |
| C[C@]12Cc3cnn(-c4ccc(F)cc4)c3C=C1CC[C@@H]2CN(CC(O)c1ccncc1)S(=O)(=O)CC(F)(F)F (stereo partly drawn) [Example 144, 2,2,2-trifluoro-N-{[(4αR,5S)-1-(4-fluorophenyl)-4α-methyl-1,4,4α,5,6,7-hexahydrocyclopenta[f]indazol-5-yl]methyl}-N-(2-hydroxy-2-pyridin-4-ylethyl)ethanesulfonamide] | 73.6% | 6.40 | 18.1% | 6.48 | 91.6% | > 5% |
| C[C@]12Cc3cnn(-c4ccc(F)cc4)c3C=C1CC[C@@H]2CN(CC(O)c1cccnc1)S(=O)(=O)CC(F)(F)F (stereo partly drawn) [Example 143, 2,2,2-trifluoro-N-{[(4αR,5S)-1-(4-fluorophenyl)-4α-methyl-1,4,4α,5,6,7-hexahydrocyclopenta[f]indazol-5-yl]methyl}-N-(2-hydroxy-2-pyridin-3-ylethyl)ethanesulfonamide] | 83.5% | 6.60 | 7.7% | 6.65 | 91.2% | > 5% |

Now from value to compound:

| Emax (human GR [1]) | pEC50 (human GR [1]) | GITAR > GRAMM % SEP (human GR [2]) | pEC50 (human GR [2]) | Emax (human GR [2]; [3]) | Emax (human GR [2]; [4]) | SMILES |
| --- | --- | --- | --- | --- | --- | --- |
| 37.4% | 6.24 | 22.9% | 6.36 | 60.3% | > 5% | C[C@]12Cc3cnn(-c4ccc(F)cc4)c3C=C1CC[C@@H]2CN(CCc1ccccc1O)S(=O)(=O)Cc1cccnc1 [Example 131, N-{[(4αR,5S)-1-(4-fluorophenyl)-4α-methyl-1,4,4α,5,6,7-hexahydrocyclopenta[f]indazol-5-yl]methyl}-N-[2-(2-hydroxyphenyl)ethyl]-1-pyridin-3-ylmethanesulfonamide] |
| 78.1% | 6.32 | 0.3% | 6.15 | 78.4% | > 5% | C[C@]12Cc3cnn(-c4ccc(F)cc4)c3C=C1CC[C@@H]2CN(CCC(N)C(F)(F)F)S(=O)(=O)CC(F)(F)F (stereo partly drawn) [Example 147, N-(3-amino-4,4,4-trifluorobutyl)-2,2,2-trifluoro-N-{[(4aR,5S)-1-(4-fluorophenyl)-4α-methyl-1,4,4α,5,6,7-hexahydrocyclopenta[f]indazol-5-yl]methyl}ethanesulfonamide] |
| 67.2% | 6.02 | 11.9% | 6.21 | 79.1% | > 5% | C[C@]12Cc3cnn(-c4ccc(F)cc4)c3C=C1CC[C@@H]2CN(CCc1ccncc1)S(=O)(=O)CC(F)(F)F [Example 129, 2,2,2-trifluoro-N-{[(4αR,5S)-1-(4-fluorophenyl)-4α-methyl-1,4,4α,5,6,7-hexahydrocyclopenta[f]indazol-5-yl]methyl}-N-(2-pyridin-4-ylethyl)ethanesulfonamide] |
